Among the data in patent US20180353457A1, “ABIETANE DITERPENOID 7-ACETOXYROYLEANONES FOR USE IN CANCER TREATMENT” (University of South Carolina, priority 2017, published 2018) are CC50 values, retold here.

The subject of assay [1] is MDA-MB-435 (melanoma) cells. In words: NCI-60 five dose screen, MDA-MB-435. Particulars: Homo sapiens, MDA-MB-435, read-out: LC50.
The subject of assay [2] is A498 (renal cancer) cells. As to the kind of experiment: NCI-60 five dose screen, A498. Particulars: Homo sapiens, A498, read-out: LC50.
The test system of assay [3] is HOP-92 (non-small cell lung cancer) cells. In words: NCI-60 five dose screen, HOP-92. Particulars: Homo sapiens, HOP-92, read-out: LC50.
For assay [4], the system named is HCC-2996 (colon cancer) cells. As to the kind of experiment: NCI-60 five dose screen, HCC-2996. Particulars: read-out: LC50.
For assay [5], the system named is RXF 393 (renal cancer) cells. In words: NCI-60 five dose screen, RXF 393. The following applies: Homo sapiens, RXF 393, read-out: LC50.
Assay [6] has as its system SF-295 (CNS cancer) cells. As to the kind of experiment: NCI-60 five dose screen, SF-295. The following applies: Homo sapiens, SF-295, read-out: LC50.
The test system of assay [7] is SK-MEL-5 (melanoma) cells. In words: NCI-60 five dose screen, SK-MEL-5. Particulars: Homo sapiens, SK-MEL-5, read-out: LC50.
In assay [8] the test system is DU-145 (prostate cancer) cells. As to the kind of experiment: NCI-60 five dose screen, DU-145. The following applies: Homo sapiens, DU-145, read-out: LC50.
In assay [9] the test system is COLO 205 (colon cancer) cells. In words: NCI-60 five dose screen, COLO 205. The following applies: Homo sapiens, COLO 205, read-out: LC50.
The subject of assay [10] is NCI-H522 (non-small cell lung cancer) cells. As to the kind of experiment: NCI-60 five dose screen, NCI-H522. The following applies: Homo sapiens, NCI-H522, read-out: LC50.
Assay [11] concerns OVCAR-3 (ovarian cancer) cells. In words: NCI-60 five dose screen, OVCAR-3. Particulars: Homo sapiens, OVCAR-3, read-out: LC50.
The subject of assay [12] is MDA-MB-468 (breast cancer) cells. As to the kind of experiment: NCI-60 five dose screen, MDA-MB-468. The following applies: Homo sapiens, MDA-MB-468, read-out: LC50.

In the case of `COc1cccc2c1C(=O)c1c(O)c3c(c(O)c1C2=O)C[C@@](O)(C(=O)CO)C[C@@H]3O[C@H]1C[C@H](N)[C@H](O)[C@H](C)O1` [Doxorubicin, doxorubicin, reference compound], the CC50 in assay [1] is 2.88 µM; in assay [2] it was 3.72 µM; in assay [3], 20.9 µM; in assay [4], 6.76 µM; in assay [5], 4.79 µM; in assay [6], 19.1 µM. The CC50 came out at 1.62 µM in [7]; 23.4 µM in assay [8]; 4.9 µM in assay [9]; 9.33 µM in assay [10]; 23.4 µM in [11]; 2.45 µM in assay [12].
